# The Kinase Knowledgebase extract (Sharma et al. 2016)
# Assays:
# EGFR = EGFR (UniProt P00533); settings: for inhibition: concentration not given here
# EGFR (murine) [1] = target: EGFR (murine) (UniProt P00533); settings: fibroblast
# EGFR (human) [2] = target: EGFR (human) (UniProt P00533); settings: mda468
# EGFR (human) [3] = target: EGFR (human) (UniProt P00533); settings: a431
# EGFR (human) [4] = target: EGFR (human) (UniProt P00533); settings: a549
# EGFR (human) [5] = target: EGFR (human) (UniProt P00533); settings: mdv-7
# EGFR (human) [6] = target: EGFR (human) (UniProt P00533); settings: mda231
# EGFR (human) [7] = target: EGFR (human) (UniProt P00533); settings: ht-29
# EGFR (murine) [8] = target: EGFR (murine) (UniProt P00533); settings: fibroblast; remark: listed apart in the source
# EGFR (human), sequence (P00533 whole entry, looked up): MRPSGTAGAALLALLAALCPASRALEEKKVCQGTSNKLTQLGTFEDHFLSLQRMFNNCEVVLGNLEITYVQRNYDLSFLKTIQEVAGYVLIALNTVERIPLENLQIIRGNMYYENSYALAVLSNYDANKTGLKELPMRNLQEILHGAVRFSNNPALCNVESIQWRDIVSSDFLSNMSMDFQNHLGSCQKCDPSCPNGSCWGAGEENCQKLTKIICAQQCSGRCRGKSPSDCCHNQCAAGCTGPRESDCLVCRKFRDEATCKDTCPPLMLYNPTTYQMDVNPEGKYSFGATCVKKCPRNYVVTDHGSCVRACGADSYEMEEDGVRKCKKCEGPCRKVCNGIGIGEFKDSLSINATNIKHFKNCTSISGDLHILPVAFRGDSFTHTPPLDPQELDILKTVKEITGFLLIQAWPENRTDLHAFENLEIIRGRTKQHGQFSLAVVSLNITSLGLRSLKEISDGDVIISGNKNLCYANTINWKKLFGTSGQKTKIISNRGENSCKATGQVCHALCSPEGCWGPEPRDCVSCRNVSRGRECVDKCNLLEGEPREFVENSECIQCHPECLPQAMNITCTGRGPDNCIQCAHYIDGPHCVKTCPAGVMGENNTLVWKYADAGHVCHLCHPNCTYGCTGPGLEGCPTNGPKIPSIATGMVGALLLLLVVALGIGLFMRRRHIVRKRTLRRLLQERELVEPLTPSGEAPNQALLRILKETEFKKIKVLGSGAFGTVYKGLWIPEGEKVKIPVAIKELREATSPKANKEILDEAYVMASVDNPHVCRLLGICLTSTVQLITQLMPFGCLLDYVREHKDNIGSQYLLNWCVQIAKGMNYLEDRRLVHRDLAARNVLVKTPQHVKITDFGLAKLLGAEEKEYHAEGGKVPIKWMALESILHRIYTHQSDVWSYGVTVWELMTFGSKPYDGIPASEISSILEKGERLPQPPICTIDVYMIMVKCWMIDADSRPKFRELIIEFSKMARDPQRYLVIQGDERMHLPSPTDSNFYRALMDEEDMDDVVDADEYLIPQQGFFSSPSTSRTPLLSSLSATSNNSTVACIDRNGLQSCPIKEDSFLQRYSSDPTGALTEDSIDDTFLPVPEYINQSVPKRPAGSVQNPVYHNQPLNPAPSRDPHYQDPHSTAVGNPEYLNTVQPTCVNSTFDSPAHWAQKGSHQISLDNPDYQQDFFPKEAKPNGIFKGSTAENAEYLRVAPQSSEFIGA
# EGFR, sequence (P00533 whole entry, looked up): as above
# EGFR (murine), sequence (P00533 whole entry, looked up): as above
SMILES,inhibition (EGFR),IC50 (EGFR),also measured
CCOC(=O)Cc1c(S)n(C)c2ccccc12,4%,–,–
CCOC(=O)CCc1c(S)n(C)c2ccccc12,3%,–,–
O=C(CCc1c(S)[nH]c2ccccc12)NCc1ccccc1,43%,–,–
Cn1c(S)c(C(=O)c2ccc(C(=O)O)cc2)c2ccccc21,–,8.7 µM,–
Cn1c(S)c(C(=O)Nc2ccccc2)c2cc(Cl)ccc21,–,9 µM,–
O=C(Cc1c(S)[nH]c2ccccc12)NCc1ccccc1,–,25 µM,–
Cn1c(S)c(CCCC(=O)O)c2ccccc21,–,23 µM,–
O=C(O)CCc1c(S)[nH]c2ccccc12,–,1.3 µM,–
COC(=O)CCCc1c(S)n(C)c2ccccc12,2%,–,–
NC(=O)CCc1c(S)[nH]c2ccccc12,–,22 µM,–
Cn1c(S)c(CCC(=O)O)c2ccccc21,–,8.5 µM,–
COC(=O)Cc1c(S)[nH]c2ccccc12,43%,–,–
CCOC(=O)CCc1c(S)[nH]c2ccccc12,10%,–,–
O=C(O)Cc1c(S)[nH]c2ccccc12,–,14.9 µM,–
O=C(O)CCCc1c(S)[nH]c2ccccc12,–,6.8 µM,–
Cn1c(S)c(C(=O)Nc2ccccc2)c2ccccc21,–,1 µM,IC50 (EGFR (murine) [1]): 64 µM; IC50 (EGFR (human) [2]): 43 µM; IC50 (EGFR (human) [3]): 62 µM; IC50 (EGFR (human) [4]): 30 µM; IC50 (EGFR (human) [5]): 39 µM; IC50 (EGFR (human) [6]): 15 µM; IC50 (EGFR (human) [7]): 55 µM; IC50 (EGFR (murine) [8]): 2000 nM
